Data on 2 substances can be found in patent publication US20160237160A1, “ANTI-TWEAKR ANTIBODIES AND USES THEREOF” (BAYER PHARMA AKTIENGESELLSCHAFT, priority 2013, published 2016).

One experiment deals with SW480 cells. The experiment is described as follows: Inhibition of proliferation (Cell Titer Glo). The experiment is classed as cell-based, human. The settings on record: 72h, 100 μg/ml antibody or *100 ng/ml TWEAK. The protocol:
(§1) Therefore cells were plated in 96well plates in 750 assay medium (growth media from Table 21, plus 100 ng/ml IFN gamma for 786-O cells) at the following cell numbers: WiDr cells 3000 cells/well, 786-O cells 2500 cells/well. 24 h later cells were incubated with anti-TWEAKR antibodies (see Table 26), recombinant human TWEAK or isotype control IgG (not shown) at the indicated concentrations (antibodies from 0.03-300 μg/ml, TWEAK 100 or 300 ng/ml). At the time of antibody addition cell viability was determined in sister plates (time point zero): therefore 750/well CTG solution (Promega Cell Titer Glo solution (catalog # G755B and G756B) was added to the cells, incubated for 10 minutes and luminescence was read on a Victor V (Perkin Elmer). 96 h after incubation with the agents, cell viability was determined in the assay plates by addition of 100 μl/well CTG solution, 10 min incubation and reading of luminescence. Proliferation in control wells was calculated by subtracting time zero values from the luminescence values in the untreated control wells. % of cell proliferation was calculated in the compound treated wells as compared to the untreated control wells.
(§2) To evaluate, whether this strong anti-proliferative activity can also be observed in a broader cell panel, in addition LOVO, NCI-H1975, SW-480 (all 3000 cells/well), HT-29 (4000 cells/well), A253 and SK-OV3 (both 2500 cells/well) cells were incubated with 100 μg/ml anti-TWEAKR antibodies or TWEAK ligand for the time periods as indicated in Table 27. All cells were seeded in the growth media indicated in Table 21 and for all cells except for WiDr cells 100 ng/ml IFNgamma was added to the assay medium when seeding the cells. The percentage of growth inhibition for treated cells as compared to proliferation in untreated control cells was measured and calculated as described above. As shown in Table 27 the antibodies of the current invention are more efficacious as compared to other known antibodies in inhibiting proliferation of various cancer cell lines at 100 μg/ml. In most experiments the antibodies of the current invention also show equal or stronger efficacy as compared to 100-300 ng/ml TWEAK ligand. Thus, the antibodies described in this invention are unique in their activity to induce apoptosis and proliferation inhibition in a broad panel of cancer cell lines.
A general note: In ATP-based viability assays light output follows the ATP content of the culture.

For a further experiment, the system named is NCI-H1975 cells. Briefly: Inhibition of proliferation (Cell Titer Glo). The experiment is classed as cell-based, human. The settings on record: 72h, 100 μg/ml antibody or *100 ng/ml TWEAK. The protocol:
as §1, §2

A further experiment relates to Lovo cells. Briefly: Inhibition of proliferation (Cell Titer Glo). The experiment is classed as cell-based, human. Conditions: 72h, 100 μg/ml antibody or *100 ng/ml TWEAK. The protocol:
as §1, §2

The target of experiment [1] is T1, TWEAKR protein (TPP-2305) (Homo sapiens, UniProt Q9NP84).
T1 construct: TPP-2305; hTNFRSF12Aaa28-80; Human; 30R-AT080; 168; purchased Fitzgerald Inc 30R-AT080
The experiment is described as follows: Biacore monovalent KD with TWEAKR protein. The experiment is classed as binding. The settings on record: for ka / kd: first order 1:1 binding model. As for the experimental part: Binding affinities of anti-TWEAKR antibodies were determined by surface plasmon resonance analysis on a Biacore T100 instrument (GE Healthcare Biacore, Inc.). Antibodies were immobilized onto a CM5 sensor chip through an indirect capturing reagent, anti-human IgG(Fc). Reagents from the “Human Antibody Capture Kit” (BR-1008-39, GE Healthcare Biacore, Inc.) were used as described by the manufacturer. Anti-TWEAKR antibodies were injected at a concentration of 10 μg/ml at 10 μl/min for 10 sec.
Sensorgrams were generated after in-line reference cell correction followed by buffer sample subtraction. The dissociation equilibrium constant (KD) was calculated based on the ratio of association (kon) and dissociation rated (koff) constants, obtained by fitting sensorgrams with a first order 1:1 binding model.
Background: SPR reads the build-up and loss of mass on a sensor chip optically.

The target in experiment [2] is T2, TWEAKR(34-68)-Fc fusion protein (TPP-2203) (Homo sapiens, UniProt Q9NP84).
T2 construct: the truncated ectodomain 34-68 were expressed and purified as Fc fusion proteins; made in house
The experiment is described as follows: ELISA with TWEAKR cysteine rich domain. Conditions: coating 1 μg/ml; 0.08 and 0.3 μg/ml biotinylated IgG. The experiment is classed as binding. The source says: (§3) In a first approach to characterize the binding epitope of the aforementioned antibodies, a N- and C-terminal truncation mutant of the TWEAKR ectodomain was generated and tested for its ability to bind to the different anti-TWEAKR antibodies. N-terminally, amino acids 28 to 33 and C-terminally amino acids 69 to 80 were deleted, thus the cysteine rich domain with disulfide bridges between Cys36-Cys49, Cys52-Cys67 and Cys55-Cys64 remains intact (compare FIG. 2). Both constructs, the full ectodomain 28-80 including the N- and C-terminus and the truncated ectodomain 34-68 were expressed and purified as Fc fusion proteins TPP-2202 and TPP-2203, respectively.
(§4) To analyze for binding, 1 μg/ml of the respective dimeric TWEAKR-Fc construct were coated and, 0.3 μg/ml and 0.08 μg/ml of biotinylated IgG were used as soluble binding partner. Detection was done with Streptavidin-HRP and Amplex-Red substrate. IgGs were biotinylated using an approximately 2-fold molar excess of biotin-LC-NHS (Pierce; Cat. No. 21347) according to manufacturer's instructions and desalted using Zeba desalting columns (Pierce; Cat. No. 89889).
A general note: In an ELISA, binding on a coated surface is turned into a signal by an enzyme label.

Experiment [3] addresses T3, TWEAKR-Fc fusion protein (TPP-2202), aa 28-80 (Homo sapiens, UniProt Q9NP84).
T3 construct: the full ectodomain 28-80 including the N- and C-terminus; made in house
The experiment is described as follows: ELISA with TWEAKR full ectodomain. The experiment is classed as binding. Conditions: coating 1 μg/ml; 0.08 and 0.3 μg/ml biotinylated IgG.
Text: as §3, §4

Another experiment deals with TWEAKR (Homo sapiens, UniProt Q9NP84). The settings on record: published data, read-out: KD / binding affinity to TWEAKR (published), cited from earlier work.
Experiment [4] addresses T4, TWEAKR(28-68)-HIS (TPP-1984) (Homo sapiens, UniProt Q9NP84).
T4 construct: Extracellular domain with C-terminal truncation (28-68) fused to HIS6 tag; made in house
The experiment is described as follows: ELISA with C-terminally truncated TWEAKR ectodomain. The experiment is classed as binding. Conditions: coating 1 μg/ml; 0.08 and 0.3 μg/ml biotinylated IgG. The protocol: as §4

The subject of the next experiment is A253 cells. Briefly: Inhibition of proliferation (Cell Titer Glo). The experiment is classed as cell-based, human. Conditions: 72h, 100 μg/ml antibody or **300 ng/ml TWEAK. The protocol:
as §1, §2

The subject of experiment [5] is 786-O cells. Briefly: Inhibition of proliferation (Cell Titer Glo). The experiment is classed as cell-based, human. The settings on record: 96h, 100 μg/ml antibody or *100 ng/ml TWEAK. As for the experimental part:
as §1, §2

Another experiment deals with SK-OV3 cells. The experiment is described as follows: Inhibition of proliferation (Cell Titer Glo). The experiment is classed as cell-based, human. The settings on record: 96h, 100 μg/ml antibody. As for the experimental part:
as §1, §2

For experiment [6], the system named is HT-29 cells. The experiment is described as follows: Inhibition of proliferation (Cell Titer Glo). The experiment is classed as cell-based, human. The settings on record: 24h, 100 μg/ml antibody or **300 ng/ml TWEAK. As for the experimental part: as §1, §2
The test system of experiment [7] is WiDr cells. Briefly: Inhibition of proliferation (Cell Titer Glo). Conditions: 96h, 100 μg/ml antibody, no IFN gamma. The experiment is classed as cell-based, human.
Description: All cells were seeded in the growth media indicated in Table 21 and for all cells except for WiDr cells 100 ng/ml IFNgamma was added to the assay medium when seeding the cells. […]
Experiment [8] concerns A375 cells. Briefly: IL-8 secretion ELISA. The settings on record: 100 μg/ml, 24 h. The experiment is classed as cell-based, human. The protocol: Therefore A375 cells were plated at 2500 cells/well in 96well plates in growth medium DMEM (Biochrom;# FG 0435, with stable Glutamin), 10% FCS. 24 h later cells were incubated with anti-TWEAKR antibodies, recombinant human TWEAK at various concentrations as indicated or corresponding isotype control IgG. 24 h after start of the incubation with the antibodies, cell supernatant or dilutions thereof were added to the Capture Elisa Plate of the human CXCL8/IL-8 ELISA Kit (R&D Systems DY208) and incubated over night at 4° C. by shaking 300 rpm. On the next day, samples were analyzed by using the human CXCL8/IL-8-ELISA Kit (R&D Systems DY208) according to the manufacturer's instructions. Optical density was measured at 450 nm (Tecan Spectra, Rainbow) together with background correction. To calculate absolute levels of IL-8 a standard curve using recombinant human IL-8 protein was applied according to the manufacturer's recommendations (R&D Systems).

In experiment [9] the test system is WiDr cells. The experiment is described as follows: FACS binding to cell surface. On the set-up: species or system human. The settings on record: 10 μg/ml. The protocol:
(§5) To determine the binding characteristics of the anti-TWEAKR antibodies on mouse and human cancer cell lines, binding was tested by flow cytometry to a panel of cell lines. Adherent cells were washed twice with PBS without Ca and Mg (Biochrom #L1825: aqueous solution containing 8000 mg/l NaCl, 200 mg/l KCl, 1150 mg/l Na2HPO4, and 200 mg/l KH2PO4) and detached by enzyme-free PBS based cell dissociation buffer (Invitrogen). Cells were suspended at approximately 10^5 cells/well in FACS buffer (PBS without Ca/Mg, containing 3% FCS, Biochrom). Cells were centrifuged (250 g, 5 min, 4° C.) and supernatant discarded. Cells were resuspended in dilutions of the antibodies of interest (10 μg/ml in 80 μl if not indicated otherwise) in FACS buffer, and incubated on ice for 1 h. In the following cells were washed once with 1000 cold FACS buffer and 80 μl secondary antibody diluted at 1:150 (PE goat anti-human IgG, Dianova #109-115-098, or PE Goat Anti-Mouse IgG, Jackson Immuno Research #115-115-164) was added. After incubation for 1 h on ice cells were again washed with cold FACS buffer, resuspended in 1000 FACS buffer and analyzed by flow cytometry using a FACS-Array (BD Biosciences). Results are calculated as Geo Mean of fluorescence detected by the antibody of interest subtracted by background fluorescence as measured by detection with the secondary antibody alone. Values are scored according to the following system: Geo Mean−Geo Mean of secondary antibody alone >10: +, >100: ++, >1000: +++, 10000: ++++, close to category border in ( ).

Experiment [10] deals with A375 cells. The experiment is described as follows: FACS binding to cell surface. On the set-up: species or system human. Conditions: 10 μg/ml. As for the experimental part:
as §5

The subject of another experiment is NCI-H322 cells. The experiment is described as follows: FACS binding to cell surface. On the set-up: species or system human. The settings on record: 10 μg/ml. The protocol:
as §5

The next experiment deals with SK-OV-3 cells. The experiment is described as follows: FACS binding to cell surface. On the set-up: species or system human. The settings on record: SKOV-3; 10 μg/ml. The protocol:
as §5

In experiment [11] the test system is 786-O cells. Briefly: FACS binding to cell surface. The settings on record: 10 μg/ml. Details: species or system human. As for the experimental part: as §5
The test system of experiment [12] is HT-29 cells. The experiment is described as follows: FACS binding to cell surface. Conditions: HT29; 10 μg/ml. Details: species or system human. As for the experimental part: as §5

Where two headings read alike, the source gives them in different places.

Take “P4A8(TPP-1324): reference agonistic anti-TWEAKR antibody, human IgG1, variable domains from WO2009/140177; SEQ ID NO 125/126 [reference compound]”: the results for the “% Inhibition of proliferation” value in the experiment with SW480 cells, in the experiment with NCI-H1975 cells and with Lovo cells were 5%, 20% and −5%, respectively. In experiment [1], the ka worked out at 1.2e+06 M⁻¹ s⁻¹. Further, the kd in experiment [1] was 0.0027 s⁻¹. Further, the “ELISA binding to N- and C-terminally truncated construct (34-68)” value in experiment [2] is reported as “impaired binding”. In addition, the “ELISA binding to full ectodomain (28-80)” value in [3] was “saturated binding”. Also, the Kd with TWEAKR (listed as BIIB036/P4A8) is 1.7 nM; with TWEAKR, 2.6 nM. Besides, the “ELISA binding to C-terminally truncated ectodomain (28-68)” value in experiment [4] was “impaired binding”.
Turning to “PDL-192(TPP-1104): reference agonistic anti-TWEAKR antibody, human IgG1, variable domains from WO2009/020933; SEQ ID NO 127/128 [reference compound]”, the “% Inhibition of proliferation” value in the experiment on SW480 cells is 27%; with A253 cells, 87%; in the experiment with 786-O cells [5], 41%; in the experiment with SK-OV3 cells it was 44%; in the experiment with NCI-H1975 cells, 46%; in the experiment with Lovo cells, 49%. The “% Inhibition of proliferation” value is reported as 62% in the experiment with HT-29 cells [6] and 12% in the experiment with WiDr cells [7]. Further, the ka in experiment [1] was found to be 1e+07 M⁻¹ s⁻¹. Moreover, the kd in [1] was 0.038 s⁻¹. The results for the Kd (in experiment [1] (monovalent KD); with TWEAKR) were 3.7 nM and 5.5 nM, respectively. In the experiment with A375 cells [8], the “IL-8 release, % of the activation as compared to 300 ng/ml TWEAK ligand” value is reported as 66%. Besides, the “GeoMean of Fluorescence minus GeoMean with the secondary antibody only” value came out at 3563 with WiDr cells [9]; 865 in the experiment with A375 cells [10]; 330 with NCI-H322 cells; 4053 with SK-OV-3 cells; 25283 with 786-O cells [11]; 2127 with HT-29 cells [12].
